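Exposure lasted 48 hours, with cells grown in 96-well plates and compounds tested at five concentrations. Here, GI50 denotes the concentration required for 50% inhibition of growth. TGI: concentration producing complete growth inhibition.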
Legend:
Assay in all cases: NCI anticancer screen, dose series, 48 h
786-0 renal = system: 786-0 renal
A498 renal = system: A498 renal
A549 NSCLC = system: A549 NSCLC
ACHN renal = system: ACHN renal
BT-549 breast = system: BT-549 breast
CAKI-1 renal = system: CAKI-1 renal
CCRF-CEM leukemia = system: CCRF-CEM leukemia
COLO 205 colon = system: COLO 205 colon
DU-145 prostate = system: DU-145 prostate
EKVX NSCLC = system: EKVX NSCLC
HCC-2998 colon = system: HCC-2998 colon
HCT-116 colon = system: HCT-116 colon
HCT-15 colon = system: HCT-15 colon
HL-60(TB) leukemia = system: HL-60(TB) leukemia
HOP-62 NSCLC = system: HOP-62 NSCLC
HOP-92 NSCLC = system: HOP-92 NSCLC
HS 578T breast = system: HS 578T breast
HT29 colon = system: HT29 colon
IGROV1 ovarian = system: IGROV1 ovarian
K-562 leukemia = system: K-562 leukemia
KM12 colon = system: KM12 colon
LOX IMVI melanoma = system: LOX IMVI melanoma
M14 melanoma = system: M14 melanoma
MALME-3M melanoma = system: MALME-3M melanoma
MCF7 breast = system: MCF7 breast
MDA-MB-231 breast = system: MDA-MB-231 breast
MDA-MB-435 = system: MDA-MB-435
MDA-MB-468 breast = system: MDA-MB-468 breast
MOLT-4 leukemia = system: MOLT-4 leukemia
NCI-H226 lung = system: NCI-H226 lung
NCI-H23 lung = system: NCI-H23 lung
NCI-H460 lung = system: NCI-H460 lung
NCI-H522 lung = system: NCI-H522 lung
NCI/ADR-RES ovarian = system: NCI/ADR-RES ovarian
OVCAR-3 ovarian = system: OVCAR-3 ovarian
OVCAR-4 ovarian = system: OVCAR-4 ovarian
OVCAR-5 ovarian = system: OVCAR-5 ovarian
OVCAR-8 ovarian = system: OVCAR-8 ovarian
PC-3 prostate = system: PC-3 prostate
RPMI-8226 leukemia = system: RPMI-8226 leukemia
RXF 393 renal = system: RXF 393 renal
SF-268 CNS = system: SF-268 CNS
SF-295 CNS = system: SF-295 CNS
SF-539 CNS = system: SF-539 CNS
SK-MEL-2 melanoma = system: SK-MEL-2 melanoma
SK-MEL-28 melanoma = system: SK-MEL-28 melanoma
SK-MEL-5 melanoma = system: SK-MEL-5 melanoma
SK-OV-3 ovarian = system: SK-OV-3 ovarian
SN12C renal = system: SN12C renal
SNB-19 CNS = system: SNB-19 CNS
SNB-75 CNS = system: SNB-75 CNS
SW-620 colon = system: SW-620 colon
T-47D breast = system: T-47D breast
TK-10 renal = system: TK-10 renal
U251 CNS = system: U251 CNS
UACC-257 melanoma = system: UACC-257 melanoma
UACC-62 melanoma = system: UACC-62 melanoma
UO-31 renal = system: UO-31 renal

CN(C)CCOc1ccc(C(=O)C2[C@H](c3ccc(Cl)cc3)[C@@H](c3ccccc3)NC23C(=O)Nc2ccc(Br)cc23)cc1 (stereo partly specified) showed a GI50 (786-0 renal) of 2.68 µM, a TGI (786-0 renal) of 4.95 µM and a GI50 (A498 renal) of 2.53 µM. The TGI (A498 renal) was 4.99 µM, the GI50 (A549 NSCLC) was 2.51 µM and the TGI (A549 NSCLC) was 4.85 µM. The GI50 (ACHN renal) was 2.55 µM, the TGI (ACHN renal) was 4.77 µM and the GI50 (BT-549 breast) was 3 µM. It also gave a TGI (BT-549 breast) of 5.82 µM, a GI50 (CAKI-1 renal) of 2.38 µM and a TGI (CAKI-1 renal) of 4.54 µM. For the same compound, the GI50 (CCRF-CEM leukemia) was 3.09 µM, the TGI (CCRF-CEM leukemia) was 7.86 µM and the GI50 (COLO 205 colon) was 2.75 µM. For the same compound, the TGI (COLO 205 colon) was 5.37 µM, the GI50 (DU-145 prostate) was 2.7 µM and the TGI (DU-145 prostate) was 5 µM. It also gave a GI50 (EKVX NSCLC) of 2.24 µM, a TGI (EKVX NSCLC) of 4.4 µM and a GI50 (HCC-2998 colon) of 2.22 µM. For the same compound, the TGI (HCC-2998 colon) was 4.39 µM, the GI50 (HCT-116 colon) was 2.4 µM and the TGI (HCT-116 colon) was 4.82 µM. It also gave a GI50 (HCT-15 colon) of 2.6 µM, a TGI (HCT-15 colon) of 4.95 µM and a GI50 (HL-60(TB) leukemia) of 2.89 µM. For the same compound, the TGI (HL-60(TB) leukemia) was 6.75 µM, the GI50 (HOP-62 NSCLC) was 2.69 µM and the TGI (HOP-62 NSCLC) was 5.56 µM. The GI50 (HOP-92 NSCLC) was 1.74 µM, the TGI (HOP-92 NSCLC) was 3.8 µM and the GI50 (HS 578T breast) was 2.18 µM. For the same compound, the TGI (HS 578T breast) was 6.88 µM, the GI50 (HT29 colon) was 2.47 µM and the TGI (HT29 colon) was 5.2 µM. The GI50 (IGROV1 ovarian) was 2.51 µM, the TGI (IGROV1 ovarian) was 4.79 µM and the GI50 (K-562 leukemia) was 2.73 µM. It also gave a TGI (K-562 leukemia) of 9.03 µM, a GI50 (KM12 colon) of 2.8 µM and a TGI (KM12 colon) of 5.46 µM. For the same compound, the GI50 (LOX IMVI melanoma) was 2.42 µM, the TGI (LOX IMVI melanoma) was 4.61 µM and the GI50 (M14 melanoma) was 2.89 µM. It also gave a TGI (M14 melanoma) of 5.45 µM, a GI50 (MALME-3M melanoma) of 2.43 µM and a TGI (MALME-3M melanoma) of 4.81 µM. It also gave a GI50 (MCF7 breast) of 2.41 µM, a TGI (MCF7 breast) of 5.05 µM and a GI50 (MDA-MB-231 breast) of 2.41 µM. For the same compound, the TGI (MDA-MB-231 breast) was 4.59 µM, the GI50 (MDA-MB-435) was 2.59 µM and the TGI (MDA-MB-435) was 4.84 µM. The GI50 (MDA-MB-468 breast) was 2.4 µM, the TGI (MDA-MB-468 breast) was 4.68 µM and the GI50 (MOLT-4 leukemia) was 2.58 µM. The TGI (MOLT-4 leukemia) was 6.53 µM, the GI50 (NCI-H226 lung) was 2.65 µM and the TGI (NCI-H226 lung) was 5.6 µM. The GI50 (NCI-H23 lung) was 2.62 µM, the TGI (NCI-H23 lung) was 5.03 µM and the GI50 (NCI-H460 lung) was 2.71 µM. It also gave a TGI (NCI-H460 lung) of 5.22 µM, a GI50 (NCI-H522 lung) of 2.87 µM and a TGI (NCI-H522 lung) of 5.56 µM. The GI50 (NCI/ADR-RES ovarian) was 2.68 µM, the TGI (NCI/ADR-RES ovarian) was 5.07 µM and the GI50 (OVCAR-3 ovarian) was 2.24 µM. It also gave a TGI (OVCAR-3 ovarian) of 4.57 µM, a GI50 (OVCAR-4 ovarian) of 2.47 µM and a TGI (OVCAR-4 ovarian) of 4.91 µM. It also gave a GI50 (OVCAR-5 ovarian) of 2.23 µM, a TGI (OVCAR-5 ovarian) of 4.34 µM and a GI50 (OVCAR-8 ovarian) of 2.58 µM. The TGI (OVCAR-8 ovarian) was 5.01 µM, the GI50 (PC-3 prostate) was 2.48 µM and the TGI (PC-3 prostate) was 4.94 µM. The GI50 (RPMI-8226 leukemia) was 3.33 µM, the TGI (RPMI-8226 leukemia) was 8.37 µM and the GI50 (RXF 393 renal) was 1.65 µM. The TGI (RXF 393 renal) was 3.61 µM, the GI50 (SF-268 CNS) was 2.47 µM and the TGI (SF-268 CNS) was 5.46 µM. The GI50 (SF-295 CNS) was 2.48 µM, the TGI (SF-295 CNS) was 4.68 µM and the GI50 (SF-539 CNS) was 2.64 µM. It also gave a TGI (SF-539 CNS) of 4.89 µM, a GI50 (SK-MEL-2 melanoma) of 2.68 µM and a TGI (SK-MEL-2 melanoma) of 5.16 µM. It also gave a GI50 (SK-MEL-28 melanoma) of 2.65 µM, a TGI (SK-MEL-28 melanoma) of 4.88 µM and a GI50 (SK-MEL-5 melanoma) of 2.52 µM. For the same compound, the TGI (SK-MEL-5 melanoma) was 4.71 µM, the GI50 (SK-OV-3 ovarian) was 4.39 µM and the TGI (SK-OV-3 ovarian) was 16.3 µM. It also gave a GI50 (SN12C renal) of 2.35 µM, a TGI (SN12C renal) of 4.55 µM and a GI50 (SNB-19 CNS) of 2.63 µM. It also gave a TGI (SNB-19 CNS) of 4.94 µM, a GI50 (SNB-75 CNS) of 1.7 µM and a TGI (SNB-75 CNS) of 5.81 µM. It also gave a GI50 (SW-620 colon) of 2.63 µM, a TGI (SW-620 colon) of 5.17 µM and a GI50 (T-47D breast) of 2.33 µM. The TGI (T-47D breast) was 5.18 µM, the GI50 (TK-10 renal) was 2.67 µM and the TGI (TK-10 renal) was 5.61 µM. The GI50 (U251 CNS) was 2.59 µM, the TGI (U251 CNS) was 4.96 µM and the GI50 (UACC-257 melanoma) was 2.53 µM. The TGI (UACC-257 melanoma) was 4.94 µM, the GI50 (UACC-62 melanoma) was 2.5 µM and the TGI (UACC-62 melanoma) was 4.74 µM. The GI50 (UO-31 renal) was 2.3 µM and the TGI (UO-31 renal) was 4.63 µM.

Source: PubChem BioAssay (NCI)
